Laboratory results taken from US8399681B2, “Substituted aminothiazolone indazoles as estrogen related receptor-alpha modulators” (Janssen Pharmaceutica NV, priority 2009, dated 2013).

Tests used:
[1] = target: T1, ERR1 (also known as ERR-α or ERR-1) (Homo sapiens, UniProt P11474); assay: TR-FRET assay (disruption of co-activator peptide binding); format: biochemical; settings: 6His-tagged ERR1 LBD, GST-hSRC2 co-activator polypeptide; average of 3 independent experiments
T1 sequence (P11474 193-421 limits assumed): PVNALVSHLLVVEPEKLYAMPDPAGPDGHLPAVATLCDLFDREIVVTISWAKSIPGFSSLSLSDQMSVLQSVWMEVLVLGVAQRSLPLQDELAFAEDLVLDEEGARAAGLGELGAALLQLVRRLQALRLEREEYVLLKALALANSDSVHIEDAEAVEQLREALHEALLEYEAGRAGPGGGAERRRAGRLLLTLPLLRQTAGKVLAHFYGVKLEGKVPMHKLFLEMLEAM
Method in brief: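 Compound-induced loss of co-activator recruitment, read by time-resolved FRET (excitation 340 nm; 615 and 665 nm emission) after 4-18 h at 25 °C. Reagents: 6 nM ERR1LBD, 6 nM GST-SRC-2, 30 nM Eu cryptate, 7.5 nM XL665, pH 8 Tris buffer. Values: hyperbolic fits averaged over 3 independent runs.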

Zucker fa/fa male rats = assay: Zucker fa/fa Rat Model Assay; format: in vivo; settings: dosed orally once a day for 4 days, blood collected at day 5
Text: Zucker fa/fa is a monogenic model of frank diabetes due to a mutation on the fa gene truncating the leptin receptor and preventing its interaction with its peptide hormone. This mutation results in a hyperphagic phenotype and the rodent develops obesity, hyperlipidemia, fasting hyperglycemia and insulin resistance. Zucker fa/fa male rats were received at four weeks of age and allowed to acclimate for one week. At five weeks of age the animals were single housed in cages in a temperature-controlled room with 12-hour light/dark cycle. The rats were allowed ad libitum access to water and food and throughout the study were maintained on a Purina 5008 diet. Animals were sorted based primarily on fed insulin levels and circulating triglycerides. Animals were dosed orally once a day in the morning for 4 days. The vehicle used was either 20% HPβCD (Hydroxypropyl Beta Cyclodextrin) or 15% Vitamin E/30% PEG-400 (Polyethylene Glycol 400). Fed insulin and triglycerides were measured using blood collected from the tail vein at day 5. Serum plasma samples were prepared by centrifugation in EDTA (Ethylenediaminetetraacetic acid) containing tubes, transferred into 96 well plates and stored at −80° C.

SMILES | EC50 [1] | % Lowering Fed Insulin Levels (Zucker fa/fa male rats) | % Lowering Fed Triglyceride Levels (Zucker fa/fa male rats)
O=C1N=C(N2CCC(C(=O)O)CC2)S/C1=C\c1ccc2c(cnn2Cc2ccc(C(F)(F)F)cc2C(F)(F)F)c1 [Compound 1, 1-{5-[1-(2,4-Bis-trifluoromethyl-benzyl)-1H-indazol-5-ylmethylene]-4-oxo-4,5-dihydro-thiazol-2-yl}-piperidine-4-carboxylic acid] | 10.1 nM | 58% | 37%
O=C1N=C(N2CC(C(=O)O)C2)S/C1=C\c1ccc2c(cnn2Cc2ccc(C(F)(F)F)cc2C(F)(F)F)c1 [Example 35, 1-{5-[1-(2,4-Bis-trifluoromethyl-benzyl)-1H-indazol-5-ylmethylene]-4-oxo-4,5-dihydro-thiazol-2-yl}-azetidine-3-carboxylic acid] | 14.3 nM | 45% | 20%
O=C1N=C(N2CCC(C(=O)O)CC2)S/C1=C\c1ccc2c(cnn2Cc2ccc(Cl)cc2C(F)(F)F)c1 [Example 39, 1-{5-[1-(4-Chloro-2-trifluoromethyl-benzyl)-1H-indazol-5-ylmethylene]-4-oxo-4,5-dihydro-thiazol-2-yl}-piperidine-4-carboxylic acid] | 3.2 nM | 58% | 35%
O=C1N=C(N2CC(C(=O)O)C2)S/C1=C\c1ccc2c(cnn2Cc2ccc(Cl)cc2C(F)(F)F)c1 [Example 40, 1-{5-[1-(4-Chloro-2-trifluoromethyl-benzyl)-1H-indazol-5-ylmethylene]-4-oxo-4,5-dihydro-thiazol-2-yl}-azetidine-3-carboxylic acid] | 8 nM | 75% | 60%
N[C@H]1CCCN(C2=NC(=O)/C(=C/c3ccc4c(cnn4Cc4ccc(C(F)(F)F)cc4C(F)(F)F)c3)S2)C1 [Example 52, 2-(3-(S)-Amino-piperidin-1-yl)-5-[1-(2,4-bis-trifluoromethyl-benzyl)-1H-indazol-5-ylmethylene]-thiazol-4-one] | 4.5 nM | 86% | 55%
O=C1N=C(N2CCCNCC2)S/C1=C\c1ccc2c(cnn2Cc2ccc(Cl)cc2C(F)(F)F)c1 [Example 54, 5-[1-(4-Chloro-2-trifluoromethyl-benzyl)-1H-indazol-5-ylmethylene]-2-[1,4]diazepan-1-yl-thiazol-4-one] | 13.1 nM | 60% | 27%
COCCN1CCN(C2=NC(=O)/C(=C/c3ccc4c(cnn4Cc4ccc(Cl)cc4C(F)(F)F)c3)S2)CC1 [Example 56, 5-[1-(4-Chloro-2-trifluoromethyl-benzyl)-1H-indazol-5-ylmethylene]-2-[4-(2-methoxy-ethyl)-piperazin-1-yl]-thiazol-4-one] | 15.7 nM | 70% | 68%
N[C@@H]1CCN(C2=NC(=O)/C(=C/c3ccc4c(cnn4Cc4ccc(Cl)cc4C(F)(F)F)c3)S2)C1 [Example 62, 2-(3-(R)-Amino-pyrrolidin-1-yl)-5-[1-(4-chloro-2-trifluoromethyl-benzyl)-1H-indazol-5-ylmethylene]-thiazol-4-one] | 17.3 nM | 48% | 36%
O=C1N=C(N2CCC[C@H]2CN2CCCC2)S/C1=C\c1ccc2c(cnn2Cc2ccc(Cl)cc2C(F)(F)F)c1 [Example 64, 5-[1-(4-Chloro-2-trifluoromethyl-benzyl)-1H-indazol-5-ylmethylene]-2-(S)-(2-pyrrolidin-1-ylmethyl-pyrrolidin-1-yl)-thiazol-4-one] | 25 nM | 46% | 51%
O=C1N=C(N2C[C@@H]3C[C@H]2CN3CCO)S/C1=C\c1ccc2c(cnn2Cc2ccc(C(F)(F)F)cc2C(F)(F)F)c1 [Example 71, 5-[1-(2,4-Bis-trifluoromethyl-benzyl)-1H-indazol-5-ylmethylene]-2-[5-(2-hydroxy-ethyl)-2S,5S-diaza-bicyclo[2.2.1]hept-2-yl]-thiazol-4-one] | 16.4 nM | 37% | 25%
CN(C)C(=O)CN1CCN(C2=NC(=O)/C(=C/c3ccc4c(cnn4Cc4ccc(Cl)cc4C(F)(F)F)c3)S2)CC1 [Example 72, 2-(4-{5-[1-(4-Chloro-2-trifluoromethyl-benzyl)-1H-indazol-5-ylmethylene]-4-oxo-4,5-dihydro-thiazol-2-yl}-piperazin-1-yl)-N,N-dimethyl-acetamide] | 13.3 nM | 62% | 57%
NC1CN(C2=NC(=O)/C(=C/c3ccc4c(cnn4Cc4ccc(Cl)cc4C(F)(F)F)c3)S2)C1 [Example 98, 2-(3-Amino-azetidin-1-yl)-5-[1-(4-chloro-2-trifluoromethyl-benzyl)-1H-indazol-5-ylmethylene]-thiazol-4-one] | 15 nM | 51% | 22%
O=C1N=C(N2CCNCC(O)C2)S/C1=C\c1ccc2c(cnn2Cc2ccc(Cl)cc2C(F)(F)F)c1 (centres unmarked) [Example 125, 5-[1-(4-Chloro-2-trifluoromethyl-benzyl)-1H-indazol-5-ylmethylene]-2-(6-hydroxy-[1,4]diazepan-1-yl)-thiazol-4-one] | 10 nM | 30% | 
O=C1N=C(N2CCN[C@@H](CO)C2)S/C1=C\c1ccc2c(cnn2Cc2ccc(C(F)(F)F)cc2C(F)(F)F)c1 [Example 139, 5-[1-(2,4-Bis-trifluoromethyl-benzyl)-1H-indazol-5-ylmethylene]-2-(3-(R)-hydroxymethyl-piperazin-1-yl)-thiazol-4-one] | 16 nM | 82% | 58%
O=C1N=C(N2CCO[C@H](CO)C2)S/C1=C\c1ccc2c(cnn2Cc2ccc(C(F)(F)F)cc2C(F)(F)F)c1 [Example 140, 5-[1-(2,4-Bis-trifluoromethyl-benzyl)-1H-indazol-5-ylmethylene]-2-((2S)-hydroxymethyl-morpholin-4-yl)-thiazol-4-one] | 19 nM | 59% | 67%
O=C1N=C(N2CCOC[C@H]2CO)S/C1=C\c1ccc2c(cnn2Cc2ccc(C(F)(F)F)cc2C(F)(F)F)c1 [Example 141, 5-[1-(2,4-Bis-trifluoromethyl-benzyl)-1H-indazol-5-ylmethylene]-2-(3(R)-hydroxymethyl-morpholin-4-yl)-thiazol-4-one] | 37 nM | 49% | 76%
O=C1N=C(N2CCOC[C@H]2CO)S/C1=C\c1ccc2c(cnn2Cc2ccc(Cl)cc2C(F)(F)F)c1 [Example 142, 5-[1-(4-Chloro-2-trifluoromethyl-benzyl)-1H-indazol-5-ylmethylene]-2-(3(R)-hydroxymethyl-morpholin-4-yl)-thiazol-4-one] | 20 nM | 63% | 55%
O=C1N=C(N2CCN[C@@H](CO)C2)S/C1=C\c1ccc2c(c1)c(Cl)nn2Cc1ccc(C(F)(F)F)cc1C(F)(F)F [Example 186, 5-[1-(2,4-Bis-trifluoromethyl-benzyl)-3-chloro-1H-indazol-5-ylmethylene]-2-(3-(R)-hydroxymethyl-piperazin-1-yl)-thiazol-4-one] | 5 nM | 75% | 56%
O=C1N=C(N2CCOC(C(=O)O)C2)S/C1=C\c1ccc2c(cnn2Cc2ccc(C(F)(F)F)cc2C(F)(F)F)c1 (centres unmarked) [Example 188, 4-[5-({1-[2,4-Bis(trifluoromethyl)benzyl]-1H-indazol-5-yl}methylidene)-4-oxo-4,5-dihydro-1,3-thiazol-2-yl]morpholine-2-carboxylic acid] | 19.7 nM | 81% | 59%
